Source: patent US20230219946A1, “PYRIMIDIN-4(3H)-ONE HETEROCYCLIC COMPOUND, PREPARATION METHOD THEREOF, AND PHARMACEUTICAL USE THEREOF” (Beijing Innocare Pharma Tech Co., Ltd., priority 2020, published 2023)
Where a name gives a salt, the structure may show the parent alone.

Key:
[1] = target: hERG potassium channel (Homo sapiens, UniProt Q12809); details: 3 μM test compound, whole-cell patch clamp, HEK293-hERG, room temperature
Procedure: All electrophysiological experiments were conducted at room temperature.

[2] = target: T1, Recombinant human SHP2 full-length protein (Homo sapiens, UniProt Q06124); assay: SHP2 activity inhibition measurement (fluorescence detection, surrogate substrate DiFMUP); type: biochemical; details: recombinant human SHP2 full-length protein activated with diphosphopeptide
T1 construct: Recombinant human SHP2 full-length protein
T1 sequence (Q06124 1-593): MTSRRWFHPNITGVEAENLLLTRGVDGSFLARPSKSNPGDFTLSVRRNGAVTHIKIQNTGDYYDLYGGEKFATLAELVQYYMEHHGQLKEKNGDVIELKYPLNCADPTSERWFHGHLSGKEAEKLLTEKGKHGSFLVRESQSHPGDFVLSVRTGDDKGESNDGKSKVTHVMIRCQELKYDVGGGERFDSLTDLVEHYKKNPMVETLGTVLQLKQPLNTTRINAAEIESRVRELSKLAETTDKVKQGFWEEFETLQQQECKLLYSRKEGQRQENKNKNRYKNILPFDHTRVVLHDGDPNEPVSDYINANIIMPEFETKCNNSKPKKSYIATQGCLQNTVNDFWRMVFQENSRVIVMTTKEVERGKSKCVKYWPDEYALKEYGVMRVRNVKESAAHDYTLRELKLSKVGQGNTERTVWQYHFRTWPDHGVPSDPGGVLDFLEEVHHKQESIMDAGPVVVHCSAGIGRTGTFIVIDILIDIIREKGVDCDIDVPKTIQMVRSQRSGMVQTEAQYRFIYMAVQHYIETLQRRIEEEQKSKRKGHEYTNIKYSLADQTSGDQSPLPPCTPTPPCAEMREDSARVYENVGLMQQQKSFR
Procedure: SHP2 activity inhibition measurement
The effect of the compound of the present invention on SHP2 activity is evaluated by rapid fluorescence detection method using the surrogate substrate DiFMUP.
(§1) The experimental method is outlined as follows:
Recombinant human SHP2 full-length protein was expressed and purified by the protein purification and identification platform of Tsinghua University; diphosphopeptide (H2N-LN(pY)IDLDLV-(dPEG8)LST(pY)ASINFQK-amide) was synthesized by Nanjing GenScript Biotechnology Co., Ltd.; surrogate substrate DiFMUP was purchased from Thermo Fisher Scientific (Cat. No. D6567); reaction buffer contained the following components: 60 mM HEPES (pH 7.2), 75 mM NaCl, 75 mM KCl, 1 mM EDTA, 0.05% TWEEN 20, and 5 mM DTT.
The compound was dissolved in DMSO (Sigma, Cat. No. D5879) and diluted to 100 μM. The resulting solution was serially diluted 4-fold with DMSO to a minimum concentration of 6.1 nM, and each concentration point was diluted 25-fold with the reaction buffer.
10 μL of compound solution and 10 μL of 0.25 nM SHP2 protein solution were added to a 384-well microplate (Corning, Cat. No. 3575), mixed well, and incubated at room temperature for 30 min. 10 μL of 0.5 μM diphosphopeptide (dissolved in the reaction buffer) was added, mixed well, and incubated at room temperature for 30 to 60 min. Subsequently, 10 μL of 60 μM DiFMUP solution (dissolved in the reaction buffer) was added, mixed well, and let stand at room temperature. After 30 min, fluorescence signals were measured at 340 nm (excitation wavelength)/450 nm (emission wavelength) using a microplate reader (EnSpire, Perkin Elmer). The fluorescence intensity value was positively correlated with the degree of dephosphorylation of the substrate, thereby reflecting the catalytic activity of SHP2. […] An inhibition curve of the compound was plotted by XLfit software and the inhibitory IC50 was calculated.

[3] = system: human non-small cell lung cancer cell line NCI-H358; assay: NCI-H358 cell proliferation inhibition (luminescent cell viability assay, CTG); type: cell-based; details: 120 h, NCI-H358 cells, 5 days, CellTiter-Glo
Procedure: Determination of NCI-H358 cell proliferation inhibition
The effect of the compound of the present invention on proliferation of human non-small cell lung cancer cell line NCI-H358 is evaluated by luminescent cell viability assay.
as §1
The compound was dissolved in DMSO (Sigma, Cat. No. D5879) and diluted to 5 mM. The resulting solution was serially diluted 4-fold with DMSO to a minimum concentration of […], and each concentration point was diluted 50-fold with RPMI 1640 Medium (Thermo Fisher Scientific, Cat. No. 11995073). When the IC50 value of the compound was low, the initial concentration of the compound was further reduced.
NCI-H358 cells (ATCC, Cat. No. CRL-5807) were cultured in RPMI 1640 Complete Medium [RPMI 1640 Medium was supplemented with 10% FBS (GBICO, Cat. No. 10099-141) and 100 units/mL Penicillin-Streptomycin (Thermo Fisher Scientific, Cat. No. 15140122)]. The cells (15,000 cells/mL) were seeded in 90 μL of Complete Medium on a 96-well plate. After culturing overnight, 10 μL of compound solution was added to each well and cultured at 37° C. in a 5% CO2 incubator for 5 days. According to the instruction from the CellTilter-Glo (CTG) kit (Promega, Cat. No. G7572), the cell culture plate was removed from incubator and equilibrated to room temperature. The cells were lysed fully with 50 μL of CTG reagent and placed at room temperature for 10 min. A luminescence signal was read by the microplate reader (EnVision, Perkin Elmer). […] An inhibition curve of the compound was plotted by XLfit software and the inhibitory IC50 was calculated.

Sequence of hERG potassium channel (Q12809 whole entry): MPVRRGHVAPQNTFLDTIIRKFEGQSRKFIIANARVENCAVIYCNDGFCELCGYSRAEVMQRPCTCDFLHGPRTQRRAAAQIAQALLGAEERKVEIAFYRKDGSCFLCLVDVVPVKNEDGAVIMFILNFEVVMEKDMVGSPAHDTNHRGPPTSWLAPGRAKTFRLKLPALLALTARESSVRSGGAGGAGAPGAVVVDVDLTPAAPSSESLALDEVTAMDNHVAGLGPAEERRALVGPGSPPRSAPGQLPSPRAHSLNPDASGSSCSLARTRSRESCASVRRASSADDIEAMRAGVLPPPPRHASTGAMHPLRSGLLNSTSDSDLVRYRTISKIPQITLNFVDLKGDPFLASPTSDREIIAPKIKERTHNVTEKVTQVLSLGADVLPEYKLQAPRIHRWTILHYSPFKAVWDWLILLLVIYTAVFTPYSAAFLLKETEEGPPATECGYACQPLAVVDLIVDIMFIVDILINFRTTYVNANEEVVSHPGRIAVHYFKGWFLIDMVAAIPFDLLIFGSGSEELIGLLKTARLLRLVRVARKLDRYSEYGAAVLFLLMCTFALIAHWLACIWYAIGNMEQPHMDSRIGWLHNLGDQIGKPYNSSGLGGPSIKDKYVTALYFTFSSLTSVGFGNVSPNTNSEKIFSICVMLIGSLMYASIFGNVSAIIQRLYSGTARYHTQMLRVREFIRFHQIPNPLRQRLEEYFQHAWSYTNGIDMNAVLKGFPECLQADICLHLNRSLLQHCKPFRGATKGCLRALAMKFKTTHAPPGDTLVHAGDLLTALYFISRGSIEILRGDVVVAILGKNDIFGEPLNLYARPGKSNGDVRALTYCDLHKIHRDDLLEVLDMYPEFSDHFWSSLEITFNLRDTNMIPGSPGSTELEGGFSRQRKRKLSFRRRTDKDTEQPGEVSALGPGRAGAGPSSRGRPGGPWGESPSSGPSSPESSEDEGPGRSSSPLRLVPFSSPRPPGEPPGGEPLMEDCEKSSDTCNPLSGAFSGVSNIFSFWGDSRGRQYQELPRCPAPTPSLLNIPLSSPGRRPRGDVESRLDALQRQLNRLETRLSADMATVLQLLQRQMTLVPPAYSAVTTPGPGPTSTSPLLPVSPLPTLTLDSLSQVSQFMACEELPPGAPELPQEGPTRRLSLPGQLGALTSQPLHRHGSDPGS

**Q.** `Cn1cc2c(Cl)c(Sc3cnc(N4CCC5(CCC[C@H]5N)CC4)n(C)c3=O)ccc2n1` [Compound 7, (R)-2-(1-amino-8-azaspiro[4.5]decan-8-yl)-5-((4-chloro-2-methyl-2H-indazole-5-yl)thio)-3-methylpyrimidin-4(3H)-one hydrochloride] was tested. Which “hERG current inhibition percentage at 3 μM solubility (n = 2)” value [1] did it give?
**A.** The value was 10%.

**Q.** And the IC50 [2]?
**A.** The IC50 was 12 nM.

**Q.** And the IC50 [3]?
**A.** Its IC50 is 575 nM.
